Data published in patent US20170216297A1, “EFFICIENT INHIBITION OF HSP27” (TECHNISCHE UNIVERSITAET DRESDEN, priority 2014, published 2017).

Key:
HSP27 [1] = biological target: T1, HSP27 (Homo sapiens, UniProt P04792); test: Capillary electrophoresis of the CS protein precipitates (precipitated citrate synthase as measure of HSP27 inhibition); format: biochemical; settings: 10 μmol/L; 43° C. for 120 minutes; 750 μmol/L BVDU set at 1
Procedure: (§1) Since the heat-denatured protein aggregates of the citrate synthase from Example 1 are not water-soluble, these can be separated completely from the supernatant by means of centrifugation at room temperature at 16,000×g, 10 min. By using capillary electrophoresis, the compositions of the separated precipitates can be shown and quantified. The relative quantity of protein of precipitated citrate synthase serves as a measure of the efficacy of the test substances.
(§2) In each case, 481 nmol/L HSP27 and 1.44 μmol/L citrate synthase in 40 mmol/L HEPES buffer, pH 7.4, were employed. The relative quantity of protein of the precipitated citrate synthase in each case was normalized using a defined quantity of BSA as internal standard. The relative quantity of protein that precipitated when using 750 μmol/L BVDU was set at 1. The other test substances (2 representatives of phenothiazine derivatives of general formula (V), 2 representatives of purine derivatives of formula (I) or (II)) were each employed at a concentration of 10 μmol/L.
as §1, with “Example 2” for “Example 1”
as §2, with “nM” for “nmol/L”, “thymine” for “purine”, “were” for “were each”, “μmol/L in each case.” for “μmol/L.”
Otherwise, the experiments were performed as described above: […]

HSP27 [2] = biological target: T1, HSP27; test: Bio-layer interferometry (ForteBio Octet Red 384, biotinylated HSP27 on SSA sensors); format: binding; settings: bio-layer interferometry; read-out: KD
From the text: Bio-layer interferometry is a technique for detecting biomolecular interactions. It is an analytical technique that measures the optical interference of white light which is reflected by two surfaces: in each case, one surface consists of a layer of the immobilized target protein on the tip of the biosensor and one is an internal reference surface. The binding of ligands to the target protein alters the interference pattern and can be measured in real time.
For the measurements, an instrument of the ForteBio Octet Red 384 brand was used. The target protein HSP27 was biotinylated and bound to the appropriate sensors (SSA). […] The purine derivatives of general formula (I) or (II) pre-identified by means of in silico screening are employed for these measurements in a concentration range (KD) of between 333 μmol/L and 10 nmol/L.
For measurements by bio-layer interferometry, biotinylated HSP27 protein was first bound to Super-Streptavidin sensors (SSA, Fortebio). The loaded sensors were then incubated (“quenched”) with biocytin. As reference, unloaded SSA sensors were incubated with biocytin. In the case of a specific binding to HSP27 of the analyte to be measured, the loaded HSP27 sensor generates a stronger signal (response) than the concurrent reference sensor. After the “baseline” has been established by incubation with the reaction buffer (PBST 0.1% Tween 20 plus 3% DMSO), first the association and then the dissociation of the respective analyte is measured in real time. The analytes were measured in increasing concentrations in each case: 1.23-3.7-11.11-33.33-100-300 μM/l.

T1 sequence (P04792 whole entry): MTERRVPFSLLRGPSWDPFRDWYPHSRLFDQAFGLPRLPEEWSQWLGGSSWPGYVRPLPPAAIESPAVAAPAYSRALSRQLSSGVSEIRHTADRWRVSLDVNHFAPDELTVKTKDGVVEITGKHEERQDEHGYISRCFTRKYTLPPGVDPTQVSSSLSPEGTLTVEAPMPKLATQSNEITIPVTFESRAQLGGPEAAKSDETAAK

- Rel. quantity of protein prec. CS (HSP27 [1]): 0.99
- Kd (HSP27 [2]): 72 µM
Compound: CC(=O)c1ccc2c(c1)N(CCCN(C)C)c1ccccc1S2 [Acepromazine]
